Measurements from ChEMBL document CHEMBL5096215, “Design, synthesis and antitumor efficacy evaluation of a series of novel β-elemene-based macrocycles” (Bioorg Med Chem, 2022).

Tests used:
[1] = system: PC-3; assay: Antiproliferative activity against human PC-3 cells assessed as inhibition of cell growth at 50 uM measured after 48 hrs by CCK8 assay relative to control; assay type: functional
[2] = Antiproliferative activity against human U-87 MG cells assessed as inhibition of cell growth measured after 48 hrs by CCK8 assay relative to control; assay type: functional, cell-based, U-87MG ATCC
[3] = system: HCT-116; assay: Antiproliferative activity against human HCT-116 cells assessed as inhibition of cell growth at 50 uM measured after 48 hrs by CCK8 assay relative to control; assay type: functional
[4] = system: PC-3; assay: Antiproliferative activity against human PC-3 cells assessed as inhibition of cell growth measured after 48 hrs by CCK8 assay relative to control; assay type: functional, cell-based; details: PC-3, 48 h
[5] = system: A549; assay: Antiproliferative activity against human A549 cells assessed as inhibition of cell growth at 50 uM measured after 48 hrs by CCK8 assay relative to control; assay type: functional
[6] = system: U-251; assay: Antiproliferative activity against human U-251 cells assessed as inhibition of cell growth at 50 uM measured after 48 hrs by CCK8 assay relative to control; assay type: functional
[7] = system: HCT-116; assay: Antiproliferative activity against human HCT-116 cells assessed as inhibition of cell growth measured after 48 hrs by CCK8 assay relative to control; assay type: functional, cell-based; details: HCT-116, 48 h
[8] = system: U-251; assay: Antiproliferative activity against human U-251 cells assessed as inhibition of cell growth measured after 48 hrs by CCK8 assay relative to control; assay type: functional, cell-based; details: U-251, 48 h
[9] = Antiproliferative activity against human U-87 MG cells assessed as inhibition of cell growth at 50 uM measured after 48 hrs by CCK8 assay relative to control; assay type: functional, U-87MG ATCC
[10] = system: A549; assay: Antiproliferative activity against human A549 cells assessed as inhibition of cell growth measured after 48 hrs by CCK8 assay relative to control; assay type: functional, cell-based; details: A549, 48 h
[11] = system: U-251; assay: Potency index, […] for antiproliferative activity against human U-251 cells assessed as inhibition of cell growth measured after 48 hrs by CCK8 assay; assay type: functional
[12] = system: A549; assay: Potency index, […] for antiproliferative activity against human A549 cells assessed as inhibition of cell growth measured after 48 hrs by CCK8 assay; assay type: functional
[13] = system: HCT-116; assay: Potency index, […] for antiproliferative activity against human HCT-116 cells assessed as inhibition of cell growth measured after 48 hrs by CCK8 assay; assay type: functional
[14] = Potency index, […] for antiproliferative activity against human U-87 MG cells assessed as inhibition of cell growth measured after 48 hrs by CCK8 assay; assay type: functional, U-87MG ATCC
[15] = system: PC-3; assay: Potency index, […] for antiproliferative activity against human PC-3 cells assessed as inhibition of cell growth measured after 48 hrs by CCK8 assay; assay type: functional

| SMILES | inhibition at 50 µM [1] | IC50 [2] | inhibition at 50 µM [3] | IC50 [4] | inhibition at 50 µM [5] | inhibition at 50 µM [6] | IC50 [7] | IC50 [8] | inhibition at 50 µM [9] | IC50 [10] | Ratio IC50 [11] | Ratio IC50 [12] | Ratio IC50 [13] | Ratio IC50 [14] | Ratio IC50 [15] |
| --- | --- | --- | --- | --- | --- | --- | --- | --- | --- | --- | --- | --- | --- | --- | --- |
| C=C[C@]1(C)CC[C@@H](C(=C)C)C[C@H]1C(=C)C | < 20% | 266 µM | < 20% | 276 µM | < 20% | < 20% | 782 µM | 181 µM | < 20% | 227 µM | – | – | – | – | – |
| C=C[C@]1(C)CC[C@@H]2C[C@H]1C(=C)CN(C)CCN(C)Cc1cccc(c1)CN(C)CCN(C)CC2=C | 68.8% | – | 94.8% | 38.6 µM | 60.7% | 98.5% | 17.6 µM | 23 µM | < 20% | 44.8 µM | 5 | 5 | 20 | 5 | 5 |
